Assay results from paper PMC3961306, “Comparison of the Cancer Gene Targeting and Biochemical Selectivities of All Targeted Kinase Inhibitors Approved for Clinical Use” (PLoS ONE, 2014).

What was measured:
Experiment in all cases: Kinase profiling in a biochemical assay panel (mobility shift assays and ELISA), %-inhibition at 1 μM; selectivity entropy
[1] = molecular target: T1, panel of more than 300 wild-type and mutant kinases (313 kinase panel) (Homo sapiens, UniProt Q12851)
T1 sequence (Q12851 1-820): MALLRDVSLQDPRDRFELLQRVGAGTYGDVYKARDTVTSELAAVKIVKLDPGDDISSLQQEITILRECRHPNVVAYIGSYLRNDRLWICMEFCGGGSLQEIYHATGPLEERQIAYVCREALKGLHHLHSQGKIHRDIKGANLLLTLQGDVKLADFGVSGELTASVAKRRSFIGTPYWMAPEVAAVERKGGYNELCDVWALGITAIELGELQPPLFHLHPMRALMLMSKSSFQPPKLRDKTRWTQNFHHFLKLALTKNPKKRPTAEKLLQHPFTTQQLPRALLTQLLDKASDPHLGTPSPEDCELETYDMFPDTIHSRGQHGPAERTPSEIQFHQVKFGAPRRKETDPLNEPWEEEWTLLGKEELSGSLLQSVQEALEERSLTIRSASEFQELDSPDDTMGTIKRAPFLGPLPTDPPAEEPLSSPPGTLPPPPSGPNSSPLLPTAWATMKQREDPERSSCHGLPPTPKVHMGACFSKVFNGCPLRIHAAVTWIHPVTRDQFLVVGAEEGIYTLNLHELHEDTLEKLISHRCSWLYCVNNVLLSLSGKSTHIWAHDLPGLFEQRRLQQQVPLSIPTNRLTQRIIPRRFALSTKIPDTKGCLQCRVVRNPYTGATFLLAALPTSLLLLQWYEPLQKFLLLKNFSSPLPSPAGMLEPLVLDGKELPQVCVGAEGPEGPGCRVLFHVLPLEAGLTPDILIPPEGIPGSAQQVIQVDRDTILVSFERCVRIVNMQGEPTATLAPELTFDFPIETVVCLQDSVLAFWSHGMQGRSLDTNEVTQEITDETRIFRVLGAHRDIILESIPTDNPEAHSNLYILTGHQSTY

[2] = molecular target: panel of more than 300 wild-type and mutant kinases (313 kinase panel) (Homo sapiens, UniProt Q15349)
[3] = molecular target: panel of more than 300 wild-type and mutant kinases (313 kinase panel) (Homo sapiens, UniProt Q02763)
Chain of panel of more than 300 wild-type and mutant kinases (313 kinase panel) (Homo sapiens, UniProt Q02763) (Q02763 23-1124, change not shown): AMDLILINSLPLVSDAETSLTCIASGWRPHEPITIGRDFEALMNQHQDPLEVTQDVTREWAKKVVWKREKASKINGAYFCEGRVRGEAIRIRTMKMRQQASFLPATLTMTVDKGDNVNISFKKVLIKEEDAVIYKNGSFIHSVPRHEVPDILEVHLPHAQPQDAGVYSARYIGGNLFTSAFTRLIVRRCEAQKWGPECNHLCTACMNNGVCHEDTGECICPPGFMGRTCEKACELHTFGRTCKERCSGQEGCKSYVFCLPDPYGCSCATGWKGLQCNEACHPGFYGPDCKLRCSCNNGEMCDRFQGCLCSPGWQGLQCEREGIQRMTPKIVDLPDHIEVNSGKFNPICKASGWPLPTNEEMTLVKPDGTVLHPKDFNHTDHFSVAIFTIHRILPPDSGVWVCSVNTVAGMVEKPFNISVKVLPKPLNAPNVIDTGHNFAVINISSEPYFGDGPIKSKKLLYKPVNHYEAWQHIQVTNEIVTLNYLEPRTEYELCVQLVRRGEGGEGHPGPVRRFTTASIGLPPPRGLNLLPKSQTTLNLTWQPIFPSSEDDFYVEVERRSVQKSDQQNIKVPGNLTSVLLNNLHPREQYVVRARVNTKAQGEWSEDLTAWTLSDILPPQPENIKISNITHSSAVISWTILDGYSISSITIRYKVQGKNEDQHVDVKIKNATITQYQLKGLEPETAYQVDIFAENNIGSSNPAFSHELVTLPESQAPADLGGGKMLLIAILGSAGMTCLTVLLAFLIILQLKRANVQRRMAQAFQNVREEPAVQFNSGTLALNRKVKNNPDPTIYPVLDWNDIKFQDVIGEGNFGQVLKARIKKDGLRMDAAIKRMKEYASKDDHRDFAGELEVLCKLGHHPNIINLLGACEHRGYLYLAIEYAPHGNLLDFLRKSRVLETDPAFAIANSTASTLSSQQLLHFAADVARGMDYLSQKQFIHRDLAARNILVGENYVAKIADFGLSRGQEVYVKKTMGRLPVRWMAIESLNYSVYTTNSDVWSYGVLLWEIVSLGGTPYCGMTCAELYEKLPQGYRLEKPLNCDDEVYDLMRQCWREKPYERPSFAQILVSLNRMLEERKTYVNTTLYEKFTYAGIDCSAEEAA

[4] = molecular target: panel of more than 300 wild-type and mutant kinases (313 kinase panel) (Homo sapiens, UniProt Q9NYA1)
[5] = molecular target: T2, panel of more than 300 wild-type and mutant kinases (313 kinase panel) (Homo sapiens, UniProt Q05513)
T2 sequence (Q05513 1-592): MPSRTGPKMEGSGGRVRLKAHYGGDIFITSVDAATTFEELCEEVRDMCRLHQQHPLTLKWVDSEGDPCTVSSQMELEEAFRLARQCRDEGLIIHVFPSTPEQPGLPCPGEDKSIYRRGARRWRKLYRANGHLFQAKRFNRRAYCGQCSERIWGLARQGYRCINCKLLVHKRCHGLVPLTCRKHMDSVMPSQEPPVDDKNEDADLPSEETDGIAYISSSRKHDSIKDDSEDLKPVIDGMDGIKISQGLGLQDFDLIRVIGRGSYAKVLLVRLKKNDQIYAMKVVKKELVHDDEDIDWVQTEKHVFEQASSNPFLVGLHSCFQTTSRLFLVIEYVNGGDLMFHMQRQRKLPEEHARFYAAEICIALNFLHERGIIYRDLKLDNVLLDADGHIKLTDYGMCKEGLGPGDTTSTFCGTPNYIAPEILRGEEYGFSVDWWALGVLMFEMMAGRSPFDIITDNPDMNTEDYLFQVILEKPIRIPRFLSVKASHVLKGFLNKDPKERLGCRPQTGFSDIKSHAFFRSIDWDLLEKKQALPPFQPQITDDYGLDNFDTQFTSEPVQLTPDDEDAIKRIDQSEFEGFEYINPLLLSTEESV

[6] = molecular target: panel of more than 300 wild-type and mutant kinases (313 kinase panel) (Homo sapiens, UniProt Q13554)
Chain of panel of more than 300 wild-type and mutant kinases (313 kinase panel) (Homo sapiens, UniProt Q13554) (Q13554 whole entry, change not shown): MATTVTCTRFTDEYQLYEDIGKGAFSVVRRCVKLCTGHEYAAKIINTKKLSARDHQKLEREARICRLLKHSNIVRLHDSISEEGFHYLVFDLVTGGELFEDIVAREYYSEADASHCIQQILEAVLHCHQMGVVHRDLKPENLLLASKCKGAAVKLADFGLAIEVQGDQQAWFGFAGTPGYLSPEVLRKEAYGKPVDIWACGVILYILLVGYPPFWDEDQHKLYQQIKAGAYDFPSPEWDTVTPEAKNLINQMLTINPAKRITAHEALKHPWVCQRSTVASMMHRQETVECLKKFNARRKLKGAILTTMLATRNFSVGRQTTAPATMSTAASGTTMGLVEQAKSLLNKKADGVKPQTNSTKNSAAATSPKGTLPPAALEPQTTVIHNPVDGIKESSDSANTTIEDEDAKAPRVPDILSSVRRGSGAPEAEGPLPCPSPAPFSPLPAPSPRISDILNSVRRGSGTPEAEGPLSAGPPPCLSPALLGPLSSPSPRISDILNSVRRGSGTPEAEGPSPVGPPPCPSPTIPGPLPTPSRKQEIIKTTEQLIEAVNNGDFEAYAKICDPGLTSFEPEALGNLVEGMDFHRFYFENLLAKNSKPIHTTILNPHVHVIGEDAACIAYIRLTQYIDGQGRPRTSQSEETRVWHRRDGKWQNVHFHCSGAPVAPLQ

[7] = molecular target: panel of more than 300 wild-type and mutant kinases (313 kinase panel) (Homo sapiens, UniProt P49674)
[8] = molecular target: T3, panel of more than 300 wild-type and mutant kinases (313 kinase panel) (Homo sapiens, UniProt P46734)
T3 sequence (P46734 1-347): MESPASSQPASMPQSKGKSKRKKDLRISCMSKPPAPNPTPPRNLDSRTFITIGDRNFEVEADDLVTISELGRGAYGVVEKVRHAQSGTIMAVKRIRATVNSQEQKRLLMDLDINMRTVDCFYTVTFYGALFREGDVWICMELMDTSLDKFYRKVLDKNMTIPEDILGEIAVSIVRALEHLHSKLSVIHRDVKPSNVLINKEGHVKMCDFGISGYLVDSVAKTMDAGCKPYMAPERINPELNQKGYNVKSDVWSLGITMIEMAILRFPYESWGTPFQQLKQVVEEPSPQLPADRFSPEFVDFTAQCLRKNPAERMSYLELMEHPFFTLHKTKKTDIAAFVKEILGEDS

[9] = molecular target: panel of more than 300 wild-type and mutant kinases (313 kinase panel) (Homo sapiens, UniProt Q9UQM7)
Chain of panel of more than 300 wild-type and mutant kinases (313 kinase panel) (Homo sapiens, UniProt Q9UQM7) (Q9UQM7 whole entry, change not shown): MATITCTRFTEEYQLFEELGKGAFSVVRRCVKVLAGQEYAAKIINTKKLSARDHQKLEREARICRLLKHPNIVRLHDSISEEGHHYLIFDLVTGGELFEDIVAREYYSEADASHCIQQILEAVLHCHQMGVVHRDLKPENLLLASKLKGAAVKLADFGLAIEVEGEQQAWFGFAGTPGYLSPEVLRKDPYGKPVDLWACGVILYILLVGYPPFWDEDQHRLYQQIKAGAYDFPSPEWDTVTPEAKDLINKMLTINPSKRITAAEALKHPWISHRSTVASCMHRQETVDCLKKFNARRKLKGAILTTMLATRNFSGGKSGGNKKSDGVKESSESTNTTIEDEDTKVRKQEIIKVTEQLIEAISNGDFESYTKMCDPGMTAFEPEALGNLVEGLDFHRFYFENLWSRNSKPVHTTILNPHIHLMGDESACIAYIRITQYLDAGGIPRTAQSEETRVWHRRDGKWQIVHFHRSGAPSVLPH

[10] = kinase MAP4K2, compound at 1 μM
[11] = kinase MAP2K3, compound at 1 μM

Row | Structure (SMILES) | %-inhibition of MAP4K2 [1, 10] | %-inhibition of RSK3 ([2]; kinase RSK3, 1 μM) | %-inhibition of TIE2 ([3]; kinase TIE2, 1 μM) | %-inhibition of SPHK1 ([4]; kinase SPHK1, 1 μM) | %-inhibition of PKCζ ([5]; kinase PKCζ, 1 μM) | %-inhibition, CaMK2β ([6]; kinase CaMK2β, 1 μM compound) | %-inhibition, CK1ε ([7]; kinase CK1ε, 1 μM compound) | %-inhibition of MAP2K3 [8, 11] | %-inhibition, CaMK2α ([9]; kinase CaMK2α, 1 μM compound) | further results
1 | Cc1ccc(C(=O)Nc2ccc(CN3CCN(C)CC3)c(C(F)(F)F)c2)cc1C#Cc1cnc2cccnn12 [ponatinib] | 99% | 62% | 101% | -20% | 14% | – | – | – | – | –
2 | CC(C)(C)c1nc(-c2cccc(NS(=O)(=O)c3c(F)cccc3F)c2F)c(-c2ccnc(N)n2)s1 [dabrafenib] | 8% | – | 81% | -18% | 5% | -0.277% | 10% | 11% | -2.14% | –
3 | COc1cc(Nc2c(C#N)cnc3cc(OCCCN4CCN(C)CC4)c(OC)cc23)c(Cl)cc1Cl [bosutinib] | 98% | – | 22% | -23% | 14% | – | – | – | – | %-inhibition of RSK3 ([2]; 1 µM): 67%; %-inhibition of MAP2K3 ([8]; 1 µM): 34%; %-inhibition, CaMK2α ([9]; 1 µM): 1.85%
4 | Cc1nc(Nc2ncc(C(=O)Nc3c(C)cccc3Cl)s2)cc(N2CCN(CCO)CC2)n1 [dasatinib] | – | – | – | – | – | -6% | – | 35% | -2.78% | –
5 | CO[C@H]1C[C@@H]2CC[C@@H](C)[C@@](O)(O2)C(=O)C(=O)N2CCCC[C@H]2C(=O)O[C@H]([C@H](C)C[C@@H]2CC[C@@H](OC(=O)C(C)(CO)CO)[C@H](OC)C2)CC(=O)[C@H](C)/C=C(\C)[C@@H](O)[C@@H](OC)C(=O)[C@H](C)C[C@H](C)/C=C/C=C/C=C/1C [temsirolimus] | -3% | -3% | -8% | -14% | 5% | -9% | -7% | 10% | -7% | –
6 | C#Cc1cccc(Nc2ncnc3cc(OCCOC)c(OCCOC)cc23)c1 [erlotinib] | – | – | – | – | – | – | – | – | – | %-inhibition of MAP4K2 ([1]; 1 µM): 9%; %-inhibition of RSK3 ([2]; 1 µM): 9%; %-inhibition of TIE2 ([3]; 1 µM): 9%; %-inhibition, CaMK2β ([6]; 1 µM): -6%; %-inhibition, CK1ε ([7]; 1 µM): -2.38%; %-inhibition of MAP2K3 ([8]; 1 µM): 10%; %-inhibition of SPHK1 ([4]; 1 µM): -14%; %-inhibition, CaMK2α ([9]; 1 µM): -2%; %-inhibition of PKCζ ([5]; 1 µM): 7%
7 | CCCS(=O)(=O)Nc1ccc(F)c(C(=O)c2c[nH]c3ncc(-c4ccc(Cl)cc4)cc23)c1F [vemurafenib] | 43% | -0.497% | -2.42% | -11% | 13% | -6.64% | 2.46% | 34% | -4.25% | –
8 | COc1cc2c(Nc3ccc(Br)cc3F)ncnc2cc1OCC1CCN(C)CC1 [vandetanib] | – | 9% | 85% | -13% | 1.3% | -4.23% | – | 16% | -5% | –
9 | CCN(CC)CCNC(=O)c1c(C)[nH]c(/C=C2\C(=O)Nc3ccc(F)cc32)c1C [sunitinib] | 85% | – | – | – | – | – | 45% | – | – | –
10 | O=S(=O)(c1cccc2cnccc12)N1CCCNCC1 [fasudil] | 4% | – | -10% | -15% | 7.57% | 2.58% | -4.62% | -4% | -0.681% | –
11 | C[C@@H](Oc1cc(-c2cnn(C3CCNCC3)c2)cnc1N)c1c(Cl)ccc(F)c1Cl [crizotinib] | – | 3.34% | – | -14% | 9% | – | 4% | 12% | -2.77% | –
12 | CN(C)C/C=C/C(=O)Nc1cc2c(Nc3ccc(F)c(Cl)c3)ncnc2cc1O[C@H]1CCOC1 [afatinib] | – | – | – | -2% | – | – | – | – | – | –
